Data set [1] concerns MA-10 mouse Leydig tumor cells. In kind it is cell-based. On the procedure: (§1) Cell viability at the end of the incubation protocol described above was assessed using the mitochondrial integrity 3-(4,5-dimethylthiazol-2-yl)-2,5-diphenyl tetrazolium bromide (MTT) assay (Trevigen, Gaithersburg, Md.). Briefly, 10 l of the MTT solution were added to the cells in 100 l medium. After an incubation period of 4 hours, 100 l of detergent were added and cells were incubated overnight at 37° C. Formazan blue formation was quantified at 600 nm and 690 nm using the Victor quantitative detection spectrophotometer (EGG-Wallac, Gaithersburg, Md.) and the results expressed as (OD600-OD690).

Data set [2] relates to H295R human adrenal tumor cells. Kind of data set: MTT mitochondrial function/cell viability in H295R cells. The format is cell-based. On the procedure:
as §1

Data set [3] deals with T1, peripheral-type benzodiazepine receptor (PBR) (Mus musculus, UniProt P50637).
T1 construct: endogenous in cells; Y1 inferred from context
As to the kind of experiment: PBR radioligand binding ([3H]PK 11195) in procaine-treated cells. Particulars: 1 μM procaine, 48 hour treatment; radioligand [3H]PK 11195. As to the method: Radioligand binding assays were performed as previously described (Papadopoulos et al., 1990, J. Biol. Chem. 265, 3772-3779). In brief, cells were scrapped from culture flasks into PBS, dispersed by trituration, and centrifuged at 1200×g for 5 min. The cells were resuspended in PBS to a final concentration of 10-50 μg protein/100 μl. Saturation binding studies were performed in a final volume of 300 μl in the presence of the radioligand [^3H]PK 11195 (specific activity 83.5 Ci/mmol; NEN Life Science Products) at the indicated concentrations. Nonspecific binding was determined in the presence of 6 μM of the homologous non-radioactive ligand. After 180 min incubation at 4° C., the assays were stopped by filtration through Whatman GF/C filters (Clifton, N.J.) and washed with 10 ml PBS. Bound radioactivity was determined by liquid scintillation counting. Bound [^3H]PK 11195 and [^3H]cholesterol were quantified by liquid scintillation spectrometry. Dissociation constants (Kd), the number of binding sites (Bmax) and Hill coefficients (nH) for PK 11195 and cholesterol were determined by Curve-Fit (Prism version 3.0, GraphPad Software Inc., San Diego, Calif.).

The target in the next data set is T2, HMG-CoA reductase (Mus musculus, UniProt Q01237).
T2 construct: endogenous in cells; host or cells: Y1 mouse adrenal tumor cells
T2 sequence (Q01237 1-887): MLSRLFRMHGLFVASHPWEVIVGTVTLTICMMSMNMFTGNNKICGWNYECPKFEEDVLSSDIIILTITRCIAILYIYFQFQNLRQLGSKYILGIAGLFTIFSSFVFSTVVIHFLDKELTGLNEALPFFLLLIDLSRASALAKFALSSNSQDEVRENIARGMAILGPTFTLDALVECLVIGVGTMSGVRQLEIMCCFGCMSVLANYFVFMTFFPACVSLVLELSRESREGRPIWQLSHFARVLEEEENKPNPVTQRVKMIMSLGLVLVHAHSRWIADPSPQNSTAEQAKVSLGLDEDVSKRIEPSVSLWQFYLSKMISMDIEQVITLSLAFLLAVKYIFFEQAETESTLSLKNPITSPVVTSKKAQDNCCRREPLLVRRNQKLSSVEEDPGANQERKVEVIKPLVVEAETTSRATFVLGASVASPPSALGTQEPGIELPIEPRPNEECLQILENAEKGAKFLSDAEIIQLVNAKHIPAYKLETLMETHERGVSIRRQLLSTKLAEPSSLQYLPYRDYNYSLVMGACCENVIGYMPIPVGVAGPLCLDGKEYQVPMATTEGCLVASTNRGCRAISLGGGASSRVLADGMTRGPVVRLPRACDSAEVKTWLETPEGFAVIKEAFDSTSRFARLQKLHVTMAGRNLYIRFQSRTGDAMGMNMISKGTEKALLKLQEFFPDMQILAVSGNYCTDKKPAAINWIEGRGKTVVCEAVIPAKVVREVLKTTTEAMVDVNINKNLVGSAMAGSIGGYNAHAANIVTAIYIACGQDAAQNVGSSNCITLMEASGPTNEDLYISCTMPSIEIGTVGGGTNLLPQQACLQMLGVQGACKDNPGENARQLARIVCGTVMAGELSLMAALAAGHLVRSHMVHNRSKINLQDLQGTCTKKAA
Kind of data set: Direct effect on HMG-CoA reductase activity in sonicated Y1 cell homogenates. In kind it is biochemical. The settings on record: sonicated Y1 cells. As to the method:
Cells were washed twice with ice-cold PBS and incubated with ice-cold assay buffer (0.1M sucrose, 40 mM KH2PO4, 30 mM EDTA, 50 mM KCl, 5 mM DTT, 0.25% (v/v) of Brij 96, at pH 7.4) on ice for 20 minutes. After centrifugation for 3 minutes at 14000 g (4° C.) the supernatants were collected and used for HMG-CoA reductase activity assay. The total 150 l assay mixture contained 100-200 g protein and the NADPH-generating system (2.5 mM NADP, 20 mM glucose 6-phosphate and 20 U/ml glucose 6-phosphate dehydrogenase). The reaction was started by adding substrate (^14C-HMG-CoA, 0.1 Ci) and stopped after 45 minutes by adding 10-1 of HCl 6M. ^3H-mevalonolactone was also added to the samples as an extraction recovery marker. After an additional 30 minutes incubation time, to allow complete lactonization of the product, the mixture was centrifuged. The supernatant was applied to Bond-Elut NH2 column and eluted with 1 ml of toluene/acetone (3:1). The eluate was discarded and further 4 ml of toluene/acetone was applied to the column and collected in a scintillation vial for counting ^14C-mevalonate and ^3H-mevalonolactone signals (Berkhout et al., 1990).
In separate experiments cells were disrupted by sonication and then treated with procaine. The direct effect of the treatment on HMG-CoA reductase activity in the homogenates was determined as described above.

The test system of a further data set is PKA. Kind of data set: dbcAMP-stimulated PKA activity (PepTag assay) in Y1 cells. In kind it is cell-based, mouse. More on the design: dose or concentration left out as unconfirmed. As to the method: Y1 cells were cultured in 6-well plates (2×10^5 cells per well) and treated as described above for steroid biosynthesis. At the end of the incubation, cells were washed twice with PBS and proteins were extracted using an extraction buffer (25 mM tris-HCl, pH 7.4, 0.5 mM EDTA, 0.5 mM EGTA, 10 mM -mercaptoethanol, 0.5 mM PMSF, 1 g/ml leupeptin, and 1 g/ml aprotinin). After centrifugation at 18,500 g for 15 minutes, the supernatants were kept for PKA activity assay. Samples were processed using the PepTag assay for non-radioactive detection of PKA activity following the manufacturer's recommendations (Promega Corporation, Madison, Wis.).

Molecules are shown by their SMILES. Structures can show the parent of a compound that is named as a salt.

As for `CCN(CC)CCOC(=O)c1ccc(N)cc1` [SP01, procaine HCl], the “effect on cell viability (MTT)” value in data set [1] is “did not affect MA-10 cell viability”. Moreover, in data set [2], the “effect on dbcAMP-induced change of mitochondrial function (MTT)” value is listed as “protected against the dbc-AMP-induced change of mitochondrial function”. In data set [3], the “Bmax of PBR ligand binding in procaine-treated cells” value came out at 29±4 pmol/mg protein. The “direct effect on HMG-CoA reductase activity” value at HMG-CoA reductase is “No direct effect”. Further, the HMG-CoA reductase activity worked out at 9.9±0.01 pmol/min/mg protein on HMG-CoA reductase (1 μM procaine), 10.3±0.6 pmol/min/mg protein at HMG-CoA reductase (10 μM procaine) and 10.1±0.1 pmol/min/mg protein on HMG-CoA reductase (100 μM procaine). Moreover, the “effect on dbcAMP-stimulated PKA activity” value with PKA is recorded as “no significant effect”.

The values are drawn from US20060194814A1, “Benzamide compounds” (priority 2003, published 2006).
